In ChEMBL document CHEMBL1201862, “PubChem BioAssay data set” (2004):
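48-hour exposure; five concentrations; linearly interpolated endpoints. GI50 = concentration required for 50% inhibition of growth.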 Active and inactive are the calls of the source. Rule as the data show it: active = GI50 up to about 1.1 µM and inactive = higher.

Experiments:
Assay in all cases: NCI anticancer screen, dose series, 48 h
[1] = test system: BT-549
[2] = test system: CAKI-1
[3] = test system: EKVX
[4] = test system: HT-29
[5] = test system: IGROV-1
[6] = test system: NCI-H460
[7] = test system: NCI/ADR-RES
[8] = test system: OVCAR-5
[9] = test system: RXF 393
[10] = test system: SF-268
[11] = test system: SF-295
[12] = test system: SK-MEL-28
[13] = test system: SNB-19
[14] = test system: SNB-75
[15] = test system: SR
[16] = test system: SW-620
[17] = test system: T47D
[18] = test system: U-251
[19] = test system: UACC-257
[20] = test system: Hs-578T

Measured: GI50

S=C(Nc1ccccn1)Nc1ccccc1Cl
inactive: [1] 52.8 µM | [2] > 52.4 µM | [3] 8.51 µM | [4] > 61.1 µM | [5] > 36.1 µM | [6] 71 µM | [7] > 67.5 µM | [8] > 50.2 µM | [9] 33.3 µM | [10] > 43.8 µM | [11] > 64.9 µM | [12] > 100 µM | [13] 27 µM | [14] > 38.5 µM | [15] 73.6 µM | [16] > 80.5 µM | [17] 67.8 µM | [18] 48.6 µM | [19] > 72.9 µM

C=C1C(=O)CC2C(=O)C(C)(O)CC/C=C(\C)C(=O)CC12 (stereo unspecified)
inactive: [1] 15.8 µM | [2] 3.17 µM | [3] 21.5 µM | [4] 17 µM | [20] 2.96 µM | [5] 15.3 µM | [6] > 100 µM | [7] 38.5 µM | [8] 20.7 µM | [9] 14.4 µM | [10] 19.5 µM | [11] > 100 µM | [12] 24.3 µM | [13] > 91.4 µM | [14] > 41.9 µM | [15] 20.2 µM | [16] 6.37 µM | [18] > 49.5 µM | [19] 20 µM

O=c1c(/C=C/c2c(O)ccc3ccccc23)nnc2sc(-c3cccc([N+](=O)[O-])c3)nn12
inactive: [1] 17.2 µM | [2] 19.1 µM | [3] 18.7 µM | [4] 36.4 µM | [20] 12.5 µM | [5] 15.3 µM | [7] 12.3 µM | [8] 33 µM | [9] 19.4 µM | [10] 8.93 µM | [11] 26.8 µM | [12] > 100 µM | [15] 4.38 µM | [16] 3.03 µM | [18] 7.6 µM | [19] 13.2 µM

CC(=O)CCC(=O)C(=[N+]=[N-])S(=O)(=O)c1ccccc1
inactive: [1] > 100 µM | [3] > 100 µM | [4] > 100 µM | [20] > 100 µM | [5] > 100 µM | [6] > 100 µM | [7] > 100 µM | [8] > 100 µM | [9] > 100 µM | [10] > 100 µM | [11] > 100 µM | [12] > 100 µM | [13] > 100 µM | [14] > 100 µM | [15] > 100 µM | [16] > 100 µM | [18] > 100 µM | [19] > 100 µM

COCN1C(=O)[C@@H]2CCCN2C(=O)c2cc(N)ccc21
inactive: [1] > 100 µM | [2] > 100 µM | [3] > 100 µM | [4] > 100 µM | [20] > 100 µM | [5] > 100 µM | [7] > 100 µM | [8] > 100 µM | [9] > 100 µM | [10] > 100 µM | [11] > 100 µM | [12] > 100 µM | [13] > 100 µM | [14] > 100 µM | [16] > 100 µM | [17] > 100 µM | [18] > 100 µM | [19] > 100 µM

CCOC(=O)C(NC(=O)c1cccc(Cl)c1)(N1CCN(c2cc3c(cc2F)c(=O)c(C(=O)O)cn3C2CC2)CC1)C(F)(F)F (stereo unspecified)
inactive: [1] 18.9 µM | [2] 17.3 µM | [3] 18.6 µM | [20] 20.7 µM | [5] 16.1 µM | [6] 16.7 µM | [8] 16.7 µM | [9] 17 µM | [10] 12.5 µM | [11] 21.6 µM | [12] 16.5 µM | [13] 22.2 µM | [14] 20.2 µM | [15] 6.61 µM | [16] 12.2 µM | [17] 19.1 µM | [18] 5.24 µM

CCN1C(=O)C(=C/C=C/c2ccc(OC)cc2)C(=O)N(CC)C1=S
inactive: [1] 26.7 µM | [2] 21.7 µM | [3] 24 µM | [4] 22.6 µM | [20] 15.7 µM | [5] 16.3 µM | [6] 30.7 µM | [7] 13.8 µM | [8] > 100 µM | [9] 17.2 µM | [10] 24.6 µM | [11] 60.4 µM | [13] 37.9 µM | [16] 20.8 µM | [17] > 100 µM | [18] 18.9 µM | [19] 16 µM

O=C1CC(c2cccc([N+](=O)[O-])c2)C2(C(=O)NC(=O)NC2=O)C(c2cccc([N+](=O)[O-])c2)C1 (stereo unspecified)
inactive: [1] > 100 µM | [4] 75.9 µM | [20] > 100 µM | [5] 60.7 µM | [6] > 100 µM | [7] > 100 µM | [8] > 100 µM | [9] 13.6 µM | [10] 19.7 µM | [11] 34.5 µM | [12] > 100 µM | [13] > 100 µM | [14] > 100 µM | [15] 55.6 µM | [16] > 100 µM | [18] > 100 µM | [19] > 100 µM
